For data set [1] the following is noted: 298.15 K; 101.33 kPa; Liquid; Vibrating tube method.
The nature of data set [2]: refractive index (Na D-line) (dimensionless). Conditions: 298.15 K; 101.33 kPa; Liquid; Standard Abbe refractometry.

Molecules are shown by their SMILES. Numbers after ± are expanded uncertainties.

For the molecule `c1ccsc1` [thiophene], the mass density in data set [1] was found to be 1058.5 ± 0.23 kg/m3. Besides, in data set [2], the refractive index was found to be 1.52581 ± 0.00068.

As for `CCCCCCCCCCCCCCCC` [hexadecane], the mass density in data set [1] came to 771.15 ± 0.3 kg/m3. Besides, the refractive index in data set [2] is given as 1.43232 ± 0.0007.

With `CCCCCCC` [heptane], the mass density in data set [1] amounted to 679.466 ± 0.26 kg/m3. Also, the refractive index in data set [2] is 1.38517 ± 0.00068.

For `CCCCCC` [hexane], in data set [1], the mass density was determined as 655.06 ± 0.31 kg/m3. The refractive index in data set [2] amounted to 1.37287 ± 0.0007.

`CCCCCCCCn1cc[n+](C)c1.O=S(=O)([N-]S(=O)(=O)C(F)(F)F)C(F)(F)F`: the mass density in data set [1] worked out at 1320.76 ± 12 kg/m3. The refractive index in data set [2] was determined as 1.43331 ± 0.0012.

Values taken from the NIST ThermoML archive (doi:10.1016/j.fluid.2007.10.010).
